A word on the AC50: it is the midpoint of the concentration-response curve, whichever way the signal moves. A word on the EC50: it is the concentration giving half of the maximal effect. What is called IC50 is the point on the concentration scale where inhibition reaches its midpoint. For orientation: GI50 means the concentration that inhibits growth by half.

In series [1] the target is Cytochrome P450 2C19 (Homo sapiens, UniProt P33261). Put plainly: Cytochrome panel assay with activity outcomes. Panel member name: p450-cyp2c19 Compounds with AC50 equal or less than 10 uM are considered active. It counts as functional.
Series [2] is described as follows: Luminescence Cell-Based Dose Confirmation HTS to Identify Activators of 5'UTR Stem-Loop Driven Alpha-Synuclein mRNA Translation in H4 Neuroglioblastoma Cells. [Related pubchem assays: 1829 (Project Summary), 1814 (Primary HTS)]. It counts as functional.
The test system of series [3] is H4. Put plainly: Luminescence Cell-Based Dose Response HTS to Identify Activators of 5'UTR Stem-Loop Driven Prion Protein mRNA Translation in H4 Neuroglioblastoma Cells. [Related pubchem assays: 1829 (Project Summary), 1814 (Primary HTS)]. It counts as functional. Particulars: Homo sapiens.
Series [4] is described as follows: Luminescence Cell-Based Dose Response HTS to Identify Activators of Luciferase Translation or Activity in H4 […] Cells. [Related pubchem assays: 1829 (Project Summary), 1814 (Primary HTS)]. It counts as functional.
The target of series [5] is FAD-linked sulfhydryl oxidase ALR (Homo sapiens, UniProt P55789). The series can be described thus: inhibitors of human ALR sulfhydryl oxidase, dose response, biochemical, H2O2 detection, luminescence, cherry-pick (AID 493248).
Series [6] in a line: cytotoxicity toward NIH3T3 fibroblasts, dose response, counter-screen, cell-based, ATP luminescence, mouse fibroblasts (AID 2010).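 Further: cells exposed to compound for about 90 hours before reading.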 It counts as functional.
Series [7] in a line: Luminescence Cell-Based Dose Retest to Confirm Inhibitors of Cancer Stem Cells. [Related pubchem assays (depositor defined):AID2717, AID2721]. It counts as functional. Particulars: Homo sapiens.
A short description of series [8]: inhibitors of intracellular T. cruzi replication, confirmation, NIH3T3 host cells, beta-gal luminescence (AID 2044).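 Further: intracellular parasites grown in NIH/3T3 mouse fibroblasts as host cells; luminescent beta-galactosidase reporter signal from transgenic T. cruzi replicating inside host cells; inhibitors lower the luminescence signal.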 It counts as functional, cell-based.
Series [9] addresses T1, Rac GTPase-activating protein 1 (Homo sapiens, UniProt Q9H0H5).
T1 sequence (Q9H0H5 whole entry): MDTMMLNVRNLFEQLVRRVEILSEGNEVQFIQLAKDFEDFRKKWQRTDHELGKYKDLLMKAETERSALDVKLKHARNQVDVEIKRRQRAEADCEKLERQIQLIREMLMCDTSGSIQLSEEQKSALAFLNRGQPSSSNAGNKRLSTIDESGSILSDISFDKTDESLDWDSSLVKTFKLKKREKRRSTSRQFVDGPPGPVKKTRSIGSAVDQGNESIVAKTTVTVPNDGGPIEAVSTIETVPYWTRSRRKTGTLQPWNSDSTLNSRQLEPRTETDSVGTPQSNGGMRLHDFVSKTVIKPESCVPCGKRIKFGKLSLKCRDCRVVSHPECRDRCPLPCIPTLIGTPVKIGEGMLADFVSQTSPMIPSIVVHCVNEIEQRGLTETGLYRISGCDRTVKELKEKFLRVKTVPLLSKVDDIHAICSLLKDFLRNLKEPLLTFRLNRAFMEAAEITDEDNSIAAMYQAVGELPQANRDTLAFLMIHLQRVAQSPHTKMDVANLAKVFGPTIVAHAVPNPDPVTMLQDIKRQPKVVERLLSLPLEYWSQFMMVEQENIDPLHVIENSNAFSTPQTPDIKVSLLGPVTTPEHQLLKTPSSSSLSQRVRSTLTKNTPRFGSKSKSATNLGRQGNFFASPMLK
The series can be described thus: MgcRacGAP GTPase-activating activity inhibitors, confirmation, biochemical, ADP Hunter fluorescence, primary and confirmatory (AID 624330). It counts as functional.

The target of series [10] is Cytochrome P450 2C9 (Homo sapiens, UniProt P11712).
Series [11] deals with P388. The series can be described thus: cells. It counts as functional. The note with it: Mus musculus.
Series [12] relates to P388/ADR. Put plainly: cells. Particulars: Mus musculus. It counts as functional.
In series [13] the test system is SN12K1. The series can be described thus: cells. It counts as functional. The note with it: Homo sapiens.

Active and inactive are the calls of the source.

FAD-linked sulfhydryl oxidase ALR, sequence (P55789 whole entry): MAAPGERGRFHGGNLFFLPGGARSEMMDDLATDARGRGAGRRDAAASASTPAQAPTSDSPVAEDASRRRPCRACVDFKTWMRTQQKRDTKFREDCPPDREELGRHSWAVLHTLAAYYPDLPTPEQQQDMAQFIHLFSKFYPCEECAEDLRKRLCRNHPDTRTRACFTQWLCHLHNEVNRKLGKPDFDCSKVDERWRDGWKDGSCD
Cytochrome P450 2C19, sequence (P33261 whole entry): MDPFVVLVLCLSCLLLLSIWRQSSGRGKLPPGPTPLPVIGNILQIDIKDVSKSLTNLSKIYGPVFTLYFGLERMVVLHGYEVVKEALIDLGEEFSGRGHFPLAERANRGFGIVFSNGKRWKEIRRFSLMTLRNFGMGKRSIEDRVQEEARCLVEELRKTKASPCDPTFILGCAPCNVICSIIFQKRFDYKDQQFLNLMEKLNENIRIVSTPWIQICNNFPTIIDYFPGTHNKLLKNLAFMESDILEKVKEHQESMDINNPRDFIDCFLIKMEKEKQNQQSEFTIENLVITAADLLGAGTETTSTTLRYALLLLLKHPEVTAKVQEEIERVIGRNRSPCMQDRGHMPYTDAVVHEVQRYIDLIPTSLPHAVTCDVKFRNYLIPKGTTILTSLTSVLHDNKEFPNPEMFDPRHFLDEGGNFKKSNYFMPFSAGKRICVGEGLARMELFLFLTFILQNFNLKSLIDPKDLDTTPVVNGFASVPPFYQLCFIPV
Cytochrome P450 2C9, sequence (P11712 whole entry): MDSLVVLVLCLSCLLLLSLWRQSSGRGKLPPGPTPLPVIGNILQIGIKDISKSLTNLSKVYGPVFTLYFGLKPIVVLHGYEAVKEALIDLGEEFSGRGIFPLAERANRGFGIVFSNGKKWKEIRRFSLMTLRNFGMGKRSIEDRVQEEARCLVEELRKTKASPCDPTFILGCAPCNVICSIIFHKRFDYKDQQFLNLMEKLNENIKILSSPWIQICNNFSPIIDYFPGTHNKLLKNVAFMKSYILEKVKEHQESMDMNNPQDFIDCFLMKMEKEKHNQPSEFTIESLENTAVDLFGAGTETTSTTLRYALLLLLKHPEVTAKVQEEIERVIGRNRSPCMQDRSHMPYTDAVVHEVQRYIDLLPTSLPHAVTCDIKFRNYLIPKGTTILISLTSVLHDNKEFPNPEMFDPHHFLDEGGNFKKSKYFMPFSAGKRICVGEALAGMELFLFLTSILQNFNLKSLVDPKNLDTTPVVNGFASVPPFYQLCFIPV

Turning to `CN(C)Cc1ccc(C(C)(C)C)cc1-c1cc(C(C)(C)C)ccc1CN(C)C`, in [1], the AC50 entry is “inconclusive”.

As to `COc1ccc(C(=O)OCc2csc(C)n2)c(O)c1`, the EC50 is 40.5 µM (active) in series [2], 79.1 µM (active) in [3] and > 120 µM (not active) in series [4].

In the case of `CCNc1ccc(C(=O)O)cc1N`, in series [5], the AC50 is 1.41 µM (active).

In the case of `O=C(NC1CCCCCC1)C1CCCN1S(=O)(=O)c1cccc2cccnc12` (stereo unspecified), in series [5], the AC50 was 10.7 µM (active).

As for `CCOc1cc(N2CCOCC2)c(OCC)cc1NC(=O)CN1CCC(Cc2ccccc2)CC1`, the EC50 in [6] is > 60 µM (not active); in series [8], 1.36 µM (active). Moreover, the AC50 in series [7] was 2.28 µM (active).

Turning to `Cc1cc(/C=C(\C#N)C(=O)NCC2CCCO2)c(C)n1-c1ccc(Cl)cc1` (stereo unspecified), the EC50 in [2] was 10 µM (active); in series [3], 8.94 µM (active); in series [4] it was 30.1 µM (active).

As for `Cc1ccccc1CSc1ccc(-c2ccc3c(c2)OCO3)nn1`, in [7], the AC50 is 6.68 µM (active).

As for `Cc1cc(C)nc(Nc2n[nH]c(COc3ccccc3)n2)n1`, the values for the concentration giving a half-maximal response (EC50) in series [2], in [3] and in series [4] were 4.85 µM (active), > 120 µM (not active) and 21.8 µM (active), respectively.

`COc1ccc(NC2CCCN(C(=O)c3csc(C(C)C)n3)C2)cc1` (stereo unspecified): in [9], the IC50 is 139 µM (active). Also, the AC50 in series [5] is 0.226 µM (active).

As to `CC(=O)NC1=C(C#N)C(c2ccccc2)c2c(ccc3ccccc23)O1` (stereo unspecified), in series [7], the AC50 was 0.733 µM (active).

In the case of `O=C(O)[C@H]1C[C@]2(C[C@H](C(=O)O)C2)C1` (stereo partly specified), the AC50 result in series [1] is “inconclusive”.

Consider `Cc1nc2cc(NC(=O)CSc3nc4c(C)cccc4cc3C#N)ccc2s1`, for which the results for the AC50 in series [1] (read-out: AC50) and in [10] were 0.251 µM (inconclusive) and 3.55 µM (inconclusive), respectively.

Turning to `CCOP(=O)(CN(CC)CCNP(=O)(OCC)OCC)OCC`, the AC50 in series [1] (read-out: AC50) is 39.8 µM (inconclusive); in series [10], 0.126 µM (inconclusive).

Turning to `CC(=O)Nc1ccc(OCC(O)CN2CCN(c3cc(Cl)ccc3C)CC2)cc1` (stereo unspecified), the AC50 in [7] was 1.77 µM (active).

On to `O=C(CCl)Nc1cccc(S(=O)(=O)NC2=NCCC2)c1`, for which the values for the concentration giving a half-maximal response (EC50) in [2], in series [3] and in [4] were 45.1 µM (active), > 120 µM (not active) and 62.6 µM (active), respectively.

On to `O=C(CN(c1ccc(Cl)cc1)S(=O)(=O)c1ccc(Cl)c([N+](=O)[O-])c1)NCCc1ccc(F)cc1`, for which the AC50 in [7] is 2.15 µM (active).

`CC(C)c1ccc(NC2CCCN(C(=O)C3=NN(C)C(=O)CC3)C2)cc1` (stereo unspecified): the AC50 in series [5] was 27.7 µM (active).

For `CN(CC(=O)Nc1ccc(Cl)c(Cl)c1)CC(=O)Nc1ccc2c(c1)OCO2`, the AC50 in [7] is 10.2 µM (active).

In the case of `C[C@H]1CN([C@@H](C)CO)C(=O)Cc2cc(NC(=O)CCC(F)(F)F)ccc2O[C@H]1CN(C)Cc1ccc(-c2ccccc2)cc1`, the AC50 in series [7] is 4.88 µM (active).

For the compound `O=C1c2ccccc2C(O)(C(=O)O)C1(O)CC=C(Cl)Cl` (stereo unspecified), the GI50 in series [11] is > 125 µM (inactive); in series [12], > 70.3 µM (inactive); in series [13], > 125 µM (inactive).

As for `O=C(O)C(Cc1cccs1)NC(=O)C(F)(F)F` (stereo unspecified), the figures for the GI50 in series [11], in series [12] and in series [13] were > 57.9 µM (inactive), > 100 µM (inactive) and > 100 µM (inactive), respectively.

Take `CS(=O)(=O)OCCCNCCCOS(C)(=O)=O`: the GI50 in [11] is 418 µM (inactive); in series [12], 392 µM (inactive); in series [13], 753 µM (inactive).

As for `CCCCCCCCCCCCOCCCOP(=O)([O-])OCC[N+](C)(C)C`, the GI50 in series [11] was 27.9 µM (inactive); in [12], > 100 µM (inactive); in [13] it was > 100 µM (inactive).

With `CCn1c(=O)c(C(=O)O)c(Cl)c2cc3c(cc21)OCO3`, the GI50 in series [11], in series [12] and in series [13] was > 100 µM (inactive) throughout.

For `CC1CC(C)(O)C2C3(C)CCCC2(COC3=O)C12CCC1(CCOC1=O)O2` (stereo unspecified), the GI50 was > 250 µM (inactive) in [11], 141 µM (inactive) in series [12] and > 250 µM (inactive) in series [13].

As to `CC1(C)N=C(N)N=C(N)N1c1ccc(CCc2ccccc2)cc1`, the GI50 is < 0.01 µM (active) in series [11], 22.2 µM (inactive) in series [12] and 0.533 µM (active) in [13].

For `COc1cc(/C=N/Nc2ccccc2)ccc1O`, in series [5], the AC50 was 0.887 µM (active).

Take `C/C(=N/NC(=O)c1ccoc1C)C12CC3CC(CC(C3)C1)C2`: the EC50 in [2] is > 120 µM (not active); in series [3], 42.6 µM (active); in series [4] it was > 120 µM (not active).

With `CC(=O)Nc1ccc(S(=O)(=O)N/N=C/c2ccc(C)s2)cc1`, the EC50 was 5.39 µM (active) in [2], 53.5 µM (active) in series [3] and 33.8 µM (active) in series [4].

With `CCN1CCN(/C=N/c2nc(C)cs2)CC1`, the EC50 in series [2] is 14.2 µM (active); in [3], > 120 µM (not active); in series [4] it was 51.9 µM (active).

On to `COc1ccc2c(c1)[nH]c1c(=O)n(/N=C/C3C(C)C=C(C)CC3C)c(=O)[nH]c12` (stereo unspecified), for which the AC50 in series [7] is > 100 µM (inactive).

Consider `OCC1OC(n2cnc3c2NC=NC[C@H]3O)C(O)C1O` (stereo partly specified), for which the GI50 in series [11] is > 366 µM (inactive); in series [12], > 366 µM (inactive); in series [13], 224 µM (inactive).

As to `C[C@]12CC[C@H](OC3OC(CO)C(O)C(O)C3O)C[C@H]1CC[C@@H]1[C@@H]2CC[C@]2(C)[C@@H](C3=CCOC3=O)CC[C@]12O` (stereo partly specified) [ACTODIGIN], the GI50 in series [11] was 7.76 µM (inactive); in [12] it was 6.12 µM (inactive); in [13], 11 µM (inactive).

Turning to `CC(C)c1oc(=O)cc2c1C(O)C1OC(=O)C3(C)C(O)C4OC4C2(C)C13` (stereo unspecified) [NAGILACTONE], the 50% growth inhibitory concentration (GI50) in series [11] is 0.365 µM (active); in [12], 2.52 µM (inactive); in series [13], 1.46 µM (inactive).

With `Nc1ncnc2c1nc(Cl)n2[C@@H]1O[C@@H]2COP(=O)(O)O[C@H]2[C@H]1O` [TOCLADESINE], the GI50 in series [11] was 36.7 µM (inactive); in series [12] it was 4.53 µM (inactive); in series [13] it was 7.26 µM (inactive).
